# From ChEMBL document CHEMBL5329166, “Discovery of imeglimin-inspired novel 1,3,5-triazine derivatives as antidiabetic agents in streptozotocin-induced diabetes in Wistar rats via inhibition of DPP-4” (RSC Med Chem, 2023)
# The source made the active and inactive calls. The calls are words filed in the database; no cut-off is given here.
# Assays:
# [1] = test system: Rattus norvegicus; assay: Antioxidant activity in IG dosed high fat diet/STZ induced diabetic Wistar rat model assessed as reversal of SOD reduction in liver pretreated with STZ for 21 days followed by compound treatment once daily for 21 days by spectrophotometric analysis; format: functional, organism-based; conditions: dose 3-30 mg/kg, time 21.0 day
# [2] = test system: Rattus norvegicus; assay: Antioxidant activity in high fat diet/STZ induced diabetic Wistar rat model assessed as reduction in glomeruli infiltration in stroma at 3 to 30 mg/kg, IG pretreated with STZ for 21 days followed by compound treatment once daily for 21 days by H and E staining based microscopic analysis; format: functional, organism-based; conditions: dose 3-30 mg/kg, time 21.0 day
# [3] = test system: Rattus norvegicus; assay: (§1) Antioxidant activity in high fat diet/STZ induced diabetic Wistar rat model assessed as healing of hepatocyte nucleus at 3 mg/kg, IG pretreated with STZ for 21 days followed by compound treatment once daily for 21 days by H and E staining based microscopic analysis; format: functional, organism-based; conditions: time 21.0 day
# [4] = test system: Rattus norvegicus; assay: Antidiabetic activity in high fat diet/STZ induced diabetic Wistar rat model assessed as reduction in total cholesterol level at 3 to 30 mg/kg, IG pretreated with STZ for 21 days followed by compound treatment once daily for 21 days by spectrophotometric analysis; format: functional, organism-based; conditions: dose 3-30 mg/kg, time 21.0 day
# [5] = test system: Rattus norvegicus; assay: Antidiabetic activity in IG dosed high fat diet/STZ induced diabetic Wistar rat model assessed as reduction in blood sugar level pretreated with STZ for 21 days followed by compound treatment once daily for 21 days by glucose test strips based assay; format: functional, organism-based; conditions: dose 3-30 mg/kg, time 21.0 day
# [6] = test system: Rattus norvegicus; assay: Antidiabetic activity in high fat diet/STZ induced diabetic Wistar rat model assessed as increase in body weight at 3 to 30 mg/kg, IG pretreated with STZ for 21 days followed by compound treatment once daily for 21 days; format: functional, organism-based; conditions: dose 3-30 mg/kg, time 21.0 day
# [7] = test system: Rattus norvegicus; assay: Antioxidant activity in high fat diet/STZ induced diabetic Wistar rat model assessed as reduction in lymphocyte level in renal stroma at 3 to 30 mg/kg, IG pretreated with STZ for 21 days followed by compound treatment once daily for 21 days by H and E staining based microscopic analysis; format: functional, organism-based; conditions: dose 3-30 mg/kg, time 21.0 day
# [8] = Acute toxicity in rat assessed as animal survival at 2000 mg/kg, po measured after 30 mins to 4 hrs; format: organism-based; conditions: in vivo, time 0.5-4 hrs
# [9] = Acute toxicity in rat assessed as change in salivation at 300 to 1000 mg/kg, po measured after 6 hrs; format: organism-based; conditions: in vivo, dose 300-1000 mg/kg
# [10] = test system: Rattus norvegicus; assay: Antioxidant activity in high fat diet/STZ induced diabetic Wistar rat model assessed as repair of pancreatic epithelial cells with reduced inflammation at 30 mg/kg, IG pretreated with STZ for 21 days followed by compound treatment once daily for 21 days by H and E staining based microscopic analysis; format: functional, organism-based; conditions: time 21.0 day
# [11] = target: Dipeptidyl peptidase 8 (Homo sapiens, UniProt Q6V1X1); assay: Inhibition of N-terminal GST/His-tagged human recombinant DPP-8 (1 to 898 residues) expressed in Sf9 insect cells using Ala-Pro-AMC dipeptide as substrate by fluorescence based assay
# [12] = Acute toxicity in rat assessed as change in mucosal membranes at 300 to 1000 mg/kg, po measured after 6 hrs; format: organism-based; conditions: in vivo, dose 300-1000 mg/kg
# [13] = Acute toxicity in po dosed rat measured after 30 mins to 4 hrs; format: organism-based; conditions: in vivo, time 0.5-4 hrs
# [14] = Acute toxicity in rat assessed as change in salivation at 2000 mg/kg, po measured after 30 mins to 4 hrs; format: organism-based; conditions: in vivo, time 0.5-4 hrs
# [15] = test system: Rattus norvegicus; assay: Antioxidant activity in IG dosed high fat diet/STZ induced diabetic Wistar rat model assessed as reversal of SOD reduction in kidney pretreated with STZ for 21 days followed by compound treatment once daily for 21 days by spectrophotometric analysis; format: functional, organism-based; conditions: dose 3-30 mg/kg, time 21.0 day
# [16] = test system: Rattus norvegicus; assay: Antioxidant activity in IG dosed high fat diet/STZ induced diabetic Wistar rat model assessed as reversal of GPx reduction in kidney pretreated with STZ for 21 days followed by compound treatment once daily for 21 days by spectrophotometric analysis; format: functional, organism-based; conditions: dose 3-30 mg/kg, time 21.0 day
# [17] = test system: Rattus norvegicus; assay: Antioxidant activity in IG dosed high fat diet/STZ induced diabetic Wistar rat model assessed as reversal of GPx reduction in liver pretreated with STZ for 21 days followed by compound treatment once daily for 21 days by spectrophotometric analysis; format: functional, organism-based; conditions: dose 3-30 mg/kg, time 21.0 day
# [18] = Acute toxicity in rat assessed as diarrhoea at 2000 mg/kg, po measured after 30 mins to 4 hrs; format: organism-based; conditions: in vivo, time 0.5-4 hrs
# [19] = test system: Rattus norvegicus; assay: Antioxidant activity in IG dosed high fat diet/STZ induced diabetic Wistar rat model assessed as reversal of GSH reduction in liver pretreated with STZ for 21 days followed by compound treatment once daily for 21 days by spectrophotometric analysis; format: functional, organism-based; conditions: dose 3-30 mg/kg, time 21.0 day
# [20] = Acute toxicity in rat assessed as change in eyes and mucous membranes at 2000 mg/kg, po measured after 30 mins to 4 hrs; format: organism-based; conditions: in vivo, time 0.5-4 hrs
# [21] = test system: Rattus norvegicus; assay: as §1, with “appearance” for “healing”, “sufficient cloudy swelling of columnar cells in tubules” for “hepatocyte nucleus”, “10” for “3”; format: functional, organism-based; conditions: time 21.0 day
# [22] = Acute toxicity in rat assessed as diarrhoea at 300 to 1000 mg/kg, po measured after 6 hrs; format: organism-based; conditions: in vivo, dose 300-1000 mg/kg
# [23] = test system: Rattus norvegicus; assay: Antioxidant activity in high fat diet/STZ induced diabetic Wistar rat model assessed as reduction in hazy swelling of columnar cells in tubules at 3 mg/kg, IG pretreated with STZ for 21 days followed by compound treatment once daily for 21 days by H and E staining based microscopic analysis; format: functional, organism-based; conditions: time 21.0 day
# [24] = Antioxidant activity assessed as H2O2 scavenging activity at 73.43 ug/ml incubated for 10 mins by absorbance based assay; format: functional; conditions: dose 73.43 µg/ml
# [25] = test system: Rattus norvegicus; assay: Antioxidant activity in high fat diet/STZ induced diabetic Wistar rat model assessed as hepatocyte cytoplasm recovery at 30 mg/kg, IG pretreated with STZ for 21 days followed by compound treatment once daily for 21 days by H and E staining based microscopic analysis; format: functional, organism-based; conditions: time 21.0 day
# Dipeptidyl peptidase 8, sequence (Q6V1X1 whole entry, the tested form may be a part): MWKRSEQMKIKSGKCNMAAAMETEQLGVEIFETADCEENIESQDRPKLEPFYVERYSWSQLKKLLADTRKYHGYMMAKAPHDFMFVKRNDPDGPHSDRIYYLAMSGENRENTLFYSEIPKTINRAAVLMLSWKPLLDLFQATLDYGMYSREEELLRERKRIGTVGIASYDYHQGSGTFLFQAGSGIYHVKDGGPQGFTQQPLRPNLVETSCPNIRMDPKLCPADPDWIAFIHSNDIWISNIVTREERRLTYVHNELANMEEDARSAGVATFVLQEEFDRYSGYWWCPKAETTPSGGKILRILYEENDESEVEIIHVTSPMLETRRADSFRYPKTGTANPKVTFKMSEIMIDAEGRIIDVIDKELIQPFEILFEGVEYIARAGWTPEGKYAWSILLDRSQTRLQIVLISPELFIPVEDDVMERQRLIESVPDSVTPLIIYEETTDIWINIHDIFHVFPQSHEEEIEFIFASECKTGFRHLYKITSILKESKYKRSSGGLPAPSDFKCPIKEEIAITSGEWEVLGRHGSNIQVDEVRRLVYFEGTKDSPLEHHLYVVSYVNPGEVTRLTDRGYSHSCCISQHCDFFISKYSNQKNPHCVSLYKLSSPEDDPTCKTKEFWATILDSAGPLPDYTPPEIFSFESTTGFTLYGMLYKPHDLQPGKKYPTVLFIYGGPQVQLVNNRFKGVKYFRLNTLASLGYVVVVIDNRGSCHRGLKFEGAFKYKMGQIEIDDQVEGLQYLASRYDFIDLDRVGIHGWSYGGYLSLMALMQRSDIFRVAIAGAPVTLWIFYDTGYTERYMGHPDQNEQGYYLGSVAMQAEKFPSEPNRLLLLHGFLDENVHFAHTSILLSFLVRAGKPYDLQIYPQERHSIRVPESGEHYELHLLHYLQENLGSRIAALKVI
smiles,measurement,setting,value
Nc1nc(NC2=NC(c3ccccc3)=CC(c3cccc([N+](=O)[O-])c3)O2)nc(N2CCOCC2)n1 (stereo not given),Activity,[1],Dose-Dependent Effect
same,Activity,[2],Active
same,Activity,[3],Active
same,Activity,[4],Active
same,Activity,[5],Dose-Dependent Effect
same,Activity,[6],Active
same,Activity,[7],Active
same,Activity,[8],Non-Toxic
same,Activity,[9],Non-Toxic
same,Activity,[10],Active
same,IC50,[11],> 400 nM
same,Activity,[12],Non-Toxic
same,LD50,[13],2000 mg/kg
same,Activity,[14],Non-Toxic
same,Activity,[15],Dose-Dependent Effect
same,Activity,[16],Dose-Dependent Effect
same,Activity,[17],Dose-Dependent Effect
same,Activity,[18],Non-Toxic
same,Activity,[19],Dose-Dependent Effect
same,Activity,[20],Non-Toxic
same,Activity,[21],Active
same,Activity,[22],Non-Toxic
same,Activity,[23],inactive
same,Activity,[24],Active
same,Activity,[25],Active
